How the values were obtained:
[1] = system: melan-a cells; experiment: Cellular melanin content (SRB combined assay); assay type: cell-based, murine; details: α-MSH, 72 hrs
Experimental: Murine melan-a cells (an immortalized, non-tumorigenic murine melanocyte cell line) were obtained from Chinese University of Hong Kong. Cells were cultured in RPMI 1640 medium. Culture medium was supplemented with 10% FBS and 1% penicillin-streptomycin and the cells were incubated at 37° C. in 5% CO2. […] The tested chemical agents (e.g., 6-CEPN and Kojic acid) were individually dissolved as a stock solution at a concentration of 100 mM in 100% dimethyl sulfoxide (DMSO). The stock solution was diluted using culture medium to the desired final concentrations immediately prior to use.
Melan-a cells (3×10^5 cells/well) were plated in 2 mL of 12-well multidishes for at least 24 hrs prior to use. […] Melanin content was measured using a sulphorhodamine B (SRB) combined assay (Lam R Y et al., J Ethnopharmacol, 132(1):274-9 (2010); Chinese patent application publication no. CN 104758191 A) to ensure any reduction in the melanin content was not due to the death of melan-a cells. As the colorimetric-based SRB assay could accurately estimate the number of viable cells, the melanin level was expressed as melanin content versus each single cell by taking into account the results of viable cells from the SRB assay. […] After a 72 h incubate, cell number was counted using SRB assay. […] The OD value was read at 595 nm. […]

[2] = system: MelanoDerm (Mel-300-A) epidermal equivalents containing melanocytes; experiment: Depigmentation in artificial skin model: brightness and L* value; assay type: cell-based, human; details: 6-CEPN 10 μM, 8-CEPQ 5 μM
Experimental: (§1) Epidermal equivalents containing melanocytes (Mel-300-A) were maintained according to the manufacturer's instructions. Mel-300-A tissue was cultured in EPI-100-NMM-113 medium for 14 days. Agents were dissolved in tissue culture medium and changed every other day. The test agents were either (1) rapamycin (2.5 μM), as the positive control in depigmentation, (2) 6-CEPN (10 μM), or (3) 8-CEPQ (5 μM). The concentration of rapamycin used was lower than 6-CEPN and 8-CEPQ, as rapamycin is toxic to cells at higher concentration. Pigmentation of these skin equivalents was compared against treatment of cells with a culture medium only (denoted as “vehicle”). Tissue viability was assessed on day 14 by CCK-8 assay as described in Example 1. On day 14, single tissues were harvested and photographed. The L* parameter was used to evaluate skin lightening or darkening. The lighter the skin, the greater the L* value. ΔL* value was measured by a Chroma Meter CR400 (Konica Minolta) for an evaluation of lightening as a function of time. Three tissues for each treatment were frozen for the Solvable Melanin assay (Bessou-Touya et al., “Chimeric human epidermal reconstructs to study the role of melanocytes and keratinocytes in pigmentation and photoprotection.” Journal of investigative dermatology 111(6):1103-1108 (1998)). Additional tissues were fixed by 10% formanin. For melanin staining in paraffin-embedded tissues, Fontana-Masson silver staining was used as previously detailed (Barbosa et al., “A simple and economical modification of the Masson-Fontana method for staining melanin granules and enterochromaffin cells.” Stain technology 59(4):193-196 (1984)).

[3] = system: MelanoDerm (Mel-300-A) epidermal equivalents containing melanocytes; experiment: Fontana-Masson silver staining of artificial skin model; assay type: cell-based, human; details: day 14, rapamycin 2.5 μM, 6-CEPN 10 μM
Experimental: as §1

O=C1C[C@@H](c2ccc(O)cc2)Oc2cc(O)c(/C=C/c3ccccc3)c(O)c21 [6-CEPN, 6-C-(E-phenylethenyl)-naringenin]
depigmenting effects (in words) [1]: much stronger depigmenting effects than kojic acid
depigmentation ([1]; 20 μM): ~80%
brightness of the tissues (visual examination) ([2]; 14 days, rapamycin 2.5 μM): increased the brightness of the tissues
L* value vs negative control ([2]; day 14, rapamycin 2.5 μM): increased the L* value
melanin content and distribution (Fontana Masson staining) [3]: significant decrease in the melanin content and distribution
thickness of basal layer of tissue [3]: without causing reduction in the thickness of basal layer of tissue

Source: US10973748B2, “Compositions and methods for lightening skin and reducing hyperpigmentation” (Versitech Limited, priority 2016, dated 2021)
